The experiment concerns the target T1, DP receptor (Homo sapiens, UniProt Q13258).
T1 construct: the human cell line LS174T, which expresses the endogenous DP receptor; endogenous in cells; host or cells: LS174T (human cell line)
T1 sequence (Q13258 1-359): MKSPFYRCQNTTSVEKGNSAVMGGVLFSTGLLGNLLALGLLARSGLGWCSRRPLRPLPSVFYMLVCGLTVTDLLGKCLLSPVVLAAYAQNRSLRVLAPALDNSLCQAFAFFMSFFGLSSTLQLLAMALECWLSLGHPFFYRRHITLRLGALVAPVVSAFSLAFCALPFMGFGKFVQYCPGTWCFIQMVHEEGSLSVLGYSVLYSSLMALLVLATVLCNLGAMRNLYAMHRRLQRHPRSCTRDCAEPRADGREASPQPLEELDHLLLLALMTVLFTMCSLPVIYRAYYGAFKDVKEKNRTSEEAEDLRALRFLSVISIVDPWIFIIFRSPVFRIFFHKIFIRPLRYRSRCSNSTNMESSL
The experiment is described as follows: SPA cAMP assay in human LS174 T cells (human DP functional assay). To be noted: concentration of the compound producing 50% inhibition in the SPA cAMP assay in human LS174 T cells; PGD2 15 nM final. The experiment is classed as cell-based. The text has this: As used in the examples and preparations that follow, as well as the rest of the application, the terms used therein shall have the meanings indicated: “kg” refers to kilograms, “g” refers to grams, “mg” refers to milligrams, “μg” refers to micrograms, “mol” refers to moles, “mmol” refers to millimoles, “M” refers to molar, “mM” refers to millimolar, “μM” refers to micromolar, “nM” refers to nanomolar, “L” refers to liters, “mL” or “ml” refers to milliliters, “μL” refers to microliters, “° C.” refers to degrees Celsius, “mp” or “m.p.” refers to melting point, “bp” or “b.p.” refers to boiling point, “mm of Hg” refers to pressure in millimeters of mercury, “cm” refers to centimeters, “nm” refers to nanometers, “abs.” refers to absolute, “conc.” refers to concentrated, “c” refers to concentration in g/mL, “rt” refers to room temperature, “TLC” refers to thin layer chromatography, “HPLC” refers to high performance liquid chromatography, “i.p.” refers to intraperitoneally, “i.v.” refers to intravenously, “s”=singlet, “d”=doublet; “t”=triplet; “q”=quartet; “m”=multiplet, “dd”=doublet of doublets; “br”=broad, “LC”=liquid chromatograph, “MS”=mass spectrograph, “ESI/MS”=electrospray ionization/mass spectrograph, “RT”=retention time, “M”=molecular ion, “PSI”=pounds per square inch, “DMSO”=dimethyl sulfoxide, “DMF”=N,N-dimethylformamide, “CDI”=1,1′-carbonyldiimidazole, “DCM” or “CH2Cl2”=dichloromethane, “HCl”=hydrochloric acid, “SPA”=Scintillation Proximity Assay, “ATTC”=American Type Culture Collection, “FBS”=Foetal Bovine Serum, “MEM”=Minimal Essential Medium, “CPM”=Counts Per Minute, “EtOAc”=ethyl acetate, “PBS”=Phosphate Buffered Saline, “TMD”=transmembrane domain, “IBMX”=3-isobutyl-1-methylxanthine, “cAMP”=cyclic adenosine monophosphate, “IUPAC”=International Union of Pure and Applied Chemistry, “MHz”=megahertz, “PEG”=polyethylene glycol, “MeOH”=methanol, “N”=normality, “THF”=tetrahydrofuran, “h”=hours, “min”=minute(s), “MeNH2”=methyl amine, “N2”=nitrogen gas, “iPrOH”=isopropyl alcohol, “O.D.”=outer diameter, “MeCN” or “CH3CN”=acetonitrile, “Et2O”=ethyl ether, “TFA”=TFA, “Prep LC”=preparatory “flash” liquid chromatography, “SPE”=solid phase extraction, “LAH”=lithium aluminum hydride, “pmol”=picomolar, “heptane”=n-heptane, “HMBA-AM” resin=4-hydroxymethylbenzoic acid amino methyl resin, “PdCl2(dppf)2”=1,1′-bis(diphenylphosphino)ferrocene-palladium (II) dichloride DCM complex, “HBTU”=2-(1H-benzotriazol-1yl)-1,1,3,3-tetramethyluronium hexafluorophosphate, “DIEA”=diisopropylethylamine, “CsF”=cesium fluoride, “LiOH”=lithium hydroxide, “˜”=approximately, “IC50”=the concentration of the compound producing 50% inhibition in the SPA cAMP assay in human LS174 T cells.
The inhibitory effects of the compounds according to the invention are assessed in a human DP functional assay. A cAMP assay is employed using the human cell line LS174T, which expresses the endogenous DP receptor. The protocol is similar to that described previously (Wright D H, Ford-Hutchinson A W, Chadee K, Metters K M, The human prostanoid DP receptor stimulates mucin secretion in LS174T cells, Br J Pharmacol. 131(8):1537-45 (2000)).
Protocol for SPA cAMP Assay in Human LS174 T Cells
• PGD2 (Cayman Chemical Cat#12010) • IBMX (Sigma Cat# 5879) • cAMP SPA direct screening assay system (Amersham code RPA 559) • 96-well cell plates (Wallac Cat#1450-516) • Wallac 1450 Microplate Trilux scintillation counter (PerkinElmer) • Plate sealers • Eppendorf tubes • Dulbecco's Phosphate-Buffered Saline (PBS) (Invitrogen Cat#14040-133) • Distilled water • Vortex • Magnetic stirrer and stirrer bars
Add 50 μL of […] IBMX into 100 mL PBS to make a final concentration of 100 μM and sonicate at 30° C. for 20 minutes.
Dissolve 1 mg PGD2 (FW, 352.5) in 284 μL DMSO to make 10 mM stock solution and store at […]. Before each assay, it is freshly prepared. Add 3 μL of 10 mM stock solution to […], mix it thoroughly, and transfer 10 mL to 40 mL PBS. […]
(cAMP levels reflect the balance of adenylyl cyclase and phosphodiesterase activity.)

For orientation: IC50 means the concentration that gives 50% inhibition. `O=C(O)Cc1c(-c2ccc(Cl)c(S(=O)(=O)NC3CCCCC3)c2)[nH]c2c(Cl)cccc12` [Example 8, [7-Chloro-2-(4-chloro-3-cyclohexylsulfamoyl-phenyl)-1H-indol-3-yl]-acetic Acid]: the midpoint of inhibition, the IC50, lay at 3.7 nM. In the case of `COc1ccc(CCNS(=O)(=O)c2cc(-c3[nH]c4ccccc4c3CC(=O)O)ccc2Cl)cc1` [Example 2(c), (2-{4-Chloro-3-[2-(4-methoxy-phenyl)-ethylsulfamoyl]-phenyl}-1H-indol-3-yl)-acetic Acid], it took 3 nM to reach half-maximal inhibition (IC50). With `COc1cccc(CCNS(=O)(=O)c2cc(-c3[nH]c4ccccc4c3CC(=O)O)ccc2Cl)c1` [Example 2(b), (2-{4-Chloro-3-[2-(3-methoxy-phenyl)-ethylsulfamoyl]-phenyl}-1H-indol-3-yl)-acetic Acid], the IC50 was 3.3 nM. This IC50 and that of the compound before are within 1.5-fold of each other. As for `CC(C(=O)O)c1c(-c2ccc(Cl)c(S(=O)(=O)NC3CCCCC3)c2)[nH]c2ccccc12` (stereo not shown) [Example 14, 2-[2-(4-Chloro-3-cyclohexylsulfamoyl-phenyl)-1H-indol-3-yl]-propionic Acid], the figure is 5.3 nM; as for `O=C(O)Cc1c(-c2ccc(Cl)c(S(=O)(=O)NCCc3ccc(Cl)cc3Cl)c2)[nH]c2ccccc12` [Example 1(d), (2-{4-Chloro-3-[2-(2,4-dichloro-phenyl)-ethylsulfamoyl]-phenyl}-1H-indol-3-yl)-acetic Acid], 2 nM. As for `O=C(O)Cc1c(-c2ccc(Cl)c(NS(=O)(=O)Cc3cccc(Cl)c3)c2)[nH]c2ccccc12` [Example 16, {2-[4-Chloro-3-(3-chloro-phenylmethanesulfonylamino)-phenyl]-1H-indol-3-yl}-acetic Acid], the figure is 12 nM; as for `O=C(O)Cc1c(-c2ccc(Cl)c(S(=O)(=O)NC3CCCCC3)c2)[nH]c2cccc(Cl)c12` [Example 4, [4-Chloro-2-(4-chloro-3-cyclohexylsulfamoyl-phenyl)-1H-indol-3-yl]-acetic Acid], 0.2 nM. Compound `CS(=O)(=O)NC(=O)Cc1c(-c2ccc(Cl)c(S(=O)(=O)NC3CCCCC3)c2)[nH]c2ccccc12` [Example 9, 2-Chloro-N-cyclohexyl-5-[3-(2-methanesulfonylamino-2-oxo-ethyl)-1H-indol-2-yl]-benzenesulfonamide] yielded an IC50 of 2 nM. This IC50 lies about 10-fold higher than the previous one. Consider `CCc1ccc(-c2[nH]c3ccccc3c2CC(=O)O)cc1S(=O)(=O)NC1CCCCC1` [Example 13, [2-(3-cyclohexylsulfamoyl-4-ethyl-phenyl)-1H-indol-3-yl]-acetic Acid], for which inhibition was half-maximal at 0.5 nM (IC50). Consider `O=C(Cc1c(-c2ccc(Cl)c(S(=O)(=O)NC3CCCCC3)c2)[nH]c2ccccc12)Nc1nnn[nH]1` [Example 12, 2-[2-(4-Chloro-3-cyclohexylsulfamoyl-phenyl)-1H-indol-3-yl]-N-(1H-tetrazol-5-yl)-acetamide], for which 15 nM corresponded to half-maximal inhibition (IC50). Turning to `O=C(Cc1c(-c2ccc(Cl)c(S(=O)(=O)NC3CCCCC3)c2)[nH]c2ccccc12)NS(=O)(=O)C(F)(F)F` [Example 11, 2-Chloro-N-cyclohexyl-5-[3-(2-oxo-2-trifluoromethanesulfonylamino-ethyl)-1H-indol-2-yl]-benzenesulfonamide], the half-inhibitory concentration (IC50) stood at 14 nM. This IC50 and that of the compound before are within 1.5-fold of each other. As for `COc1ccccc1CCNS(=O)(=O)c1cc(-c2[nH]c3ccccc3c2CC(=O)O)ccc1Cl` [Example 2(a), (2-{4-Chloro-3-[2-(2-methoxy-phenyl)-ethylsulfamoyl]-phenyl}-1H-indol-3-yl)-acetic Acid], the figure is 3.8 nM; as for `O=C(O)Cc1c(-c2ccc(Cl)c(S(=O)(=O)Cc3cccc(Cl)c3)c2)[nH]c2ccccc12` [Example 15, {2-[4-Chloro-3-(3-chloro-phenylmethanesulfonyl)-phenyl]-1H-indol-3-yl}-acetic Acid], 106 nM. The compound `O=C(O)Cc1c(-c2ccc(Cl)c(S(=O)(=O)NCCCc3ccccc3)c2)[nH]c2ccccc12` [Example 2(f), {2-[4-Chloro-3-(3-phenyl-propylsulfamoyl)-phenyl]-1H-indol-3-yl}-acetic Acid] yielded a concentration for half-maximal inhibition (IC50) of 7 nM. In turn, `Cc1cccc2[nH]c(-c3ccc(Cl)c(S(=O)(=O)NC4CCCCC4)c3)c(CC(=O)O)c12` [Example 7, [2-(4-Chloro-3-cyclohexylsulfamoyl-phenyl)-4-methyl-1H-indol-3-yl]-acetic Acid] displayed an IC50 of 1.5 nM. The compound `O=C(O)Cc1c(-c2ccc(Cl)c(S(=O)(=O)NCc3c(Cl)cccc3Cl)c2)[nH]c2ccccc12` [Example 1(b), {2-[4-Chloro-3-(2,6-dichloro-benzylsulfamoyl)-phenyl]-1H-indol-3-yl}-acetic Acid] showed an IC50 of 3 nM. This IC50 lies about 2-fold higher than the previous one. In the case of `O=C(O)Cc1c(-c2ccc(Cl)c(S(=O)(=O)NCc3ccc(Cl)cc3Cl)c2)[nH]c2ccccc12` [Example 1(a), {2-[4-Chloro-3-(2,4-dichloro-benzylsulfamoyl)-phenyl]-1H-indol-3-yl}-acetic Acid] it was 4 nM. As for `CCS(=O)(=O)NC(=O)Cc1c(-c2ccc(Cl)c(S(=O)(=O)NC3CCCCC3)c2)[nH]c2ccccc12` [Example 10, 2-Chloro-N-cyclohexyl-5-[3-(2-ethanesulfonylamino-2-oxo-ethyl)-1H-indol-2-yl]-benzenesulfonamide], the figure is 2.7 nM. In the case of `O=C(O)Cc1c(-c2ccc(Cl)c(S(=O)(=O)NC3CCCCC3)c2)[nH]c2cccc(F)c12` [Example 6, [2-(4-Chloro-3-cyclohexylsulfamoyl-phenyl)-4-fluoro-1H-indol-3-yl]-acetic Acid], the IC50 worked out at 0.7 nM. Against the preceding compound, the IC50 is about 3.9-fold lower. In the case of `O=C(O)Cc1c(-c2ccc(Cl)c(S(=O)(=O)NCc3cc(Cl)cc(Cl)c3)c2)[nH]c2ccccc12` [Example 1(c), {2-[4-Chloro-3-(3,5-dichloro-benzylsulfamoyl)-phenyl]-1H-indol-3-yl}-acetic Acid] it was 12 nM. As for `O=C(O)Cc1c(-c2ccc(Cl)c(S(=O)(=O)NCCc3ccccc3OC(F)(F)F)c2)[nH]c2ccccc12` [Example 2(d), (2-{4-Chloro-3-[2-(2-trifluoromethoxy-phenyl)-ethylsulfamoyl]-phenyl}-1H-indol-3-yl)-acetic Acid], the figure is 20 nM.

In turn, `CNC(=O)Cc1c(-c2ccc(Cl)c(S(=O)(=O)NC3CCCCC3)c2)[nH]c2ccccc12` [Example 3, 2-[2-(4-Chloro-3-cyclohexylsulfamoyl-phenyl)-1H-indol-3-yl]-N-methyl-acetamide] gave an IC50 of 509 nM.

The values above are taken from patent publication US20090176804A1, “2-PHENYL-INDOLES AS PROSTAGLANDIN D2 RECEPTOR ANTAGONISTS” (priority 2006, published 2009).
